{"source": "patent US20160243022A1", "about": "“Use of Fermented Milk Product for Skin Treatment” (GIVAUDAN S.A., priority 2006, published 2016)", "tested_on": "normal human dermal fibroblasts (NHDF)", "experiment": "[3H] proline incorporation into intracellular and ECM layer proteins (collagen synthesis)", "format": "cell-based", "conditions": "20 micro g/ml", "method": "Normal human dermal fibroblasts (NHDF) were cultured in-vitro with radio labelled [^3H] proline. Collagen is a proline-rich protein. The level of radio labelled proline found in proteins, following culturing of the NHDF, is a measure of the rate of collagen synthesis. Yogurtene™ can be added to the cell culture to measure the effect of Yogurtene™ on the rate of proline uptake (collagen synthesis).\nThe study investigated the increase in radio labelled proline found in: (i) soluble/secreted proteins, and (ii) intracellular and extra-cellular matrix (ECM) proteins.\nBeta-Transforming Growth Factor (β-TGF) and ascorbic acid are known collagen synthesis promoters and were used as controls in both studies."}
{"smiles": "O=C1O[C@H]([C@@H](O)CO)C(O)=C1O", "note": "[Ascorbic acid]", "values": [{"measurement": "Proline incorporation into intracellular & ECM layer proteins", "value": 12764, "unit": "Count/min"}]}
